Assay results published in patent publication US10308652B2, “Tricyclic heterocyclic compounds useful as inhibitors of TNF” (BRISTOL-MYERS SQUIBB COMPANY, priority 2015, dated 2019).

Target: TNFα (Homo sapiens (Human), UniProt P01375)
Experiment: TNF induced HEK-Blue assay
Format: cell-based
Settings: TNFα 0.5 ng/ml; HEK-Blue-CD40L cells, NF-κB-driven secreted alkaline phosphatase reporter; 18 h
Protocol: TNF or CD40L-induced HEK-Blue Assay Test compounds serially diluted in DMSO were plated in an assay plate (Labcyte, Cat. #LP-0200) at final concentrations ranging from 0.004 μM to 25μM. TNFα (final concentration 0.5 ng/ml) or CD4OL (final concentration 30 ng/ml) in assay buffer [DMEM, 4.5 g/l glucose (Gibco, Cat. 21063-029), 10% FBS (Sigma, F4135), 1% Penicillin-Streptomycin (Gibco, Cat. 15140-122), 1% Anti-Anti (Gibco, Cat. 15240-112) and 2 mM L-glutamine (Gibco, Cat. 25030-081)] was then added to the assay plate. After a 30 minute pre-incubation at 37° C. and 5% CO2, HEK-Blue-CD40L cells (InvivoGen, Cat. Code hkb-cd40) containing a NF-κB-driven secreted alkaline phosphatase reporter gene were seeded into the assay plate at a density of 20,000 cells per well. This plate was then incubated for 18 h at 37° C. and 5% CO2. Secreted alkaline phosphatase expression was measured using QUANTI-Blue (InvivoGen, Cat. Code rep-qb1) according to manufacturer's specifications and the assay plate was read on a PerkinElmer Envision at 620 nm. Inhibition data for the test compound over a range of concentrations was plotted as percentage inhibition of the test compound (100%=maximum inhibition). IC50 values were determined after correcting for background [(sample read−mean of low control)/(mean of high control−mean of low control)] where by the low control is DMSO without stimulation and high control is DMSO with stimulation. The IC50 is defined as the concentration of test compound which produces 50% inhibition and was quantified using the 4 parameter logistic equation to fit the data.

Sequence of TNFα (P01375 77-233): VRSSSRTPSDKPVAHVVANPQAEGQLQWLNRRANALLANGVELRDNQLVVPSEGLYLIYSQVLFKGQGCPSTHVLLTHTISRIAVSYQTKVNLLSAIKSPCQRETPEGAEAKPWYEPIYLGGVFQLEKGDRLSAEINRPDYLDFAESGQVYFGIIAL

SMILES	IC50 [nM]
COc1ccc(-c2ccc3nc4c(n3n2)C(c2ccccc2OC(F)F)NCC4)cn1 (racemic) [Example 1, (+/−)-9-(2-(Difluoromethoxy)phenyl)-2-(6-methoxypyridin-3-yl)-6,7,8,9-tetrahydropyrido[4′,3′:4,5]imidazo[1,2-b]pyridazine]	< 1000
CC(C)(O)c1ccc(-c2ccc3nc4c(n3n2)C(c2ccccc2OC(F)F)NCC4)cc1 (racemic) [Example 2, (+/−)-2-(4-(9-(2-(Difluoromethoxy)phenyl)-6,7,8,9-tetrahydropyrido [4′,3′:4,5]imidazo[1,2-b]pyridazin-2-yl)phenyl)propan-2-ol]	< 1000
CC(C)(O)c1ncc(-c2ccc3nc4c(n3n2)C(c2ccccc2OC(F)F)NCC4)cn1 (racemic) [Example 3, (+/−)-2-(5-(9-(2-(Difluoromethoxy)phenyl)-6,7,8,9-tetrahydropyrido[4′,3′:4,5]imidazo[1,2-b]pyridazin-2-yl)pyrimidin-2-yl)propan-2-ol]	1000 to 10000
CC(C)(O)c1ccc(-c2ccc3nc4c(n3n2)[C@H](c2ccccc2OC(F)F)NC[C@@H]4O)cc1 (racemic) [Example 4, (+/−)-cis-9-(2-(difluoromethoxy)phenyl)-2-(4-(2-hydroxypropan-2-yl)phenyl)-6,7,8,9-tetrahydropyrido[4′,3′:4,5]imidazo[1,2-b]pyridazin-6-ol]	< 1000
CC(C)(O)c1ccc(-c2ccc3nc4c(n3n2)[C@H](c2ccccc2OC(F)F)NC[C@@H]4F)cc1 (racemic) [Example 8, (+/−)-Cis-2-(4-((6S,9S)-9-(2-(difluoromethoxy)phenyl)-6-fluoro-6,7,8,9-tetrahydropyrido [4′,3′:4,5]imidazo[1,2-b]pyridazin-2-yl)phenyl)propan-2-ol]	< 1000
CC(C)(O)c1ccc(-c2ccc3nc4c(n3n2)[C@H](c2ccccc2OC(F)F)NC[C@H]4F)cc1 (racemic) [Example 9, (+/−)-trans-2-(4-(9-(2-(difluoromethoxy)phenyl)-6-fluoro-6,7,8,9-tetrahydropyrido[4′,3′:4,5]imidazo[1,2-b]pyridazin-2-yl)phenyl)propan-2-ol]	1000 to 10000
CC(C)(O)c1ncc(-c2ccc3nc4c(n3n2)[C@@H](c2ccccc2OC(F)F)NC[C@H]4F)cn1 (racemic) [Example 10, (+/−)-cis-2-(5-(9-(2-(difluoromethoxy)phenyl)-6-fluoro-6,7,8,9-tetrahydropyrido [4′,3′:4,5]imidazo[1,2-b]pyridazin-2-yl)pyrimidin-2-yl)propan-2-ol]	1000 to 10000
COc1ccc(-c2ccc3nc4c(n3n2)[C@@H](c2ccccc2OC(F)F)NC[C@H]4F)cn1 (racemic) [Example 11, (+/−)-cis-9-(2-(difluoromethoxy)phenyl)-6-fluoro-2-(6-methoxypyridin-3-yl)-6,7,8,9-tetrahydropyrido [4′,3′:4,5]imidazo[1,2-b]pyridazine]	10000 to 25000
COc1cc(F)ccc1[C@@H]1NC[C@@H](O)c2nc3ccc(-c4ccc(C(C)(C)O)cc4)nn3c21 (racemic) [Example 23, (+/−)-trans-9-(4-fluoro-2-methoxyphenyl)-2-(4-(2-hydroxypropan-2-yl)phenyl)-6,7,8,9-tetrahydropyrido[4′,3′:4,5]imidazo[1,2-b]pyridazin-6-ol]	1000 to 10000
CCc1ccccc1[C@@H]1NC[C@@H](O)c2nc3ccc(-c4ccc(C(C)(C)O)cc4)nn3c21 (racemic) [Example 24, (+/−)-trans-9-(2-ethylphenyl)-2-(4-(2-hydroxypropan-2-yl)phenyl)-6,7,8,9-tetrahydropyrido[4′,3′:4,5]imidazo[1,2-b]pyridazin-6-ol]	< 1000
CC(C)COc1ccc(-c2ccc3nc4c(n3n2)[C@@H](c2ccccc2OC(F)F)NC[C@H]4O)cc1 (racemic) [Example 27, (+/−)-cis-9-(2-(difluoromethoxy)phenyl)-2-(4-isobutoxyphenyl)-6,7,8,9-tetrahydropyrido[4′,3′:4,5]imidazo[1,2-b]pyridazin-6-ol]	1000 to 10000

Second part, the molecule after the results:

IC50 [nM]	SMILES
1000 to 10000	CCc1ccccc1[C@H]1NC[C@@H](O)c2nc3ccc(-c4ccc(C(C)(C)O)cc4)nn3c21 (racemic) [Example 25, (+/−)-cis-9-(2-ethylphenyl)-2-(4-(2-hydroxypropan-2-yl)phenyl)-6,7,8,9-tetrahydropyrido[4′,3′:4,5]imidazo[1,2-b]pyridazin-6-ol]
1000 to 10000	CC(C)(O)c1ccc(-c2ccc3nc4c(n3n2)[C@H](c2cc(Cl)ccc2OC(F)F)NC[C@H]4O)cc1 (racemic) [Example 28, (+/−)-trans-9-(5-chloro-2-(difluoromethoxy)phenyl)-2-(4-(2-hydroxypropan-2-yl)phenyl)-6,7,8,9-tetrahydropyrido[4′,3′:4,5]imidazo[1,2-b]pyridazin-6-ol]
1000 to 10000	CC(C)(O)COc1ccc(-c2ccc3nc4c(n3n2)[C@@H](c2ccccc2OC(F)F)NC[C@H]4O)cc1 (racemic) [Example 29, (+/−)-cis-9-(2-(difluoromethoxy)phenyl)-2-(4-(2-hydroxy-2-methylpropoxy)phenyl)-6,7,8,9-tetrahydropyrido[4′,3′:4,5]imidazo[1,2-b]pyridazin-6-ol]
1000 to 10000	COc1cc(-c2ccc3nc4c(n3n2)[C@@H](c2ccccc2OC(F)F)NC[C@H]4O)ccc1OCC(C)(C)O (racemic) [Example 30, (+/−)-cis-9-(2-(difluoromethoxy)phenyl)-2-(4-(2-hydroxy-2-methylpropoxy)-3-methoxyphenyl)-6,7,8,9-tetrahydropyrido[4′,3′:4,5]imidazo[1,2-b]pyridazin-6-ol]
1000 to 10000	CCOc1ccc(-c2ccc3nc4c(n3n2)[C@@H](c2ccccc2OC(F)F)NC[C@H]4O)cc1 (racemic) [Example 31, (+/−)-cis-9-(2-(difluoromethoxy)phenyl)-2-(4-ethoxyphenyl)-6,7,8,9-tetrahydropyrido[4′,3′:4,5]imidazo [1,2-b]pyridazin-6-ol]
1000 to 10000	CC(C)Oc1ccc(-c2ccc3nc4c(n3n2)[C@@H](c2ccccc2OC(F)F)NC[C@H]4O)cc1 (racemic) [Example 32, (+/−)-cis-9-(2-(difluoromethoxy)phenyl)-2-(4-isopropoxyphenyl)-6,7,8,9-tetrahydropyrido[4′,3′:4,5]imidazo[1,2-b]pyridazin-6-ol]
< 1000	CCCOc1ccc(-c2ccc3nc4c(n3n2)[C@@H](c2ccccc2OC(F)F)NC[C@H]4O)cc1 (racemic) [Example 33, (+/−)-cis-9-(2-(difluoromethoxy)phenyl)-2-(4-propoxyphenyl)-6,7,8,9-tetrahydropyrido [4′,3′:4,5]imidazo[1,2-b]pyridazin-6-ol]
1000 to 10000	COCCOc1ccc(-c2ccc3nc4c(n3n2)[C@@H](c2ccccc2OC(F)F)NC[C@H]4O)cc1 (racemic) [Example 34, (+/−)-cis-9-(2-(difluoromethoxy)phenyl)-2-(4-(2-methoxyethoxy)phenyl)-6,7,8,9-tetrahydropyrido[4′,3′:4,5]imidazo[1,2-b]pyridazin-6-ol]
1000 to 10000	CCOC(C)c1ccc(-c2ccc3nc4c(n3n2)C(c2ccccc2OC(F)F)NCC4O)cc1 (racemic) [Example 35, (+/−)-cis-9-(2-(difluoromethoxy)phenyl)-2-(4-(1-ethoxyethyl)phenyl)-6,7,8,9-tetrahydropyrido[4′,3′:4,5]imidazo[1,2-b]pyridazin-6-ol]
